{"source": "paper PMC5548612", "about": "(Drug and alcohol dependence, 2017)", "assay_in_all_cases": "competitive radioligand binding", "key": {"sigma-1 receptor": {"biological_target": "sigma-1 receptor"}, "5-HT2C receptor": {"biological_target": "T1, 5-HT2C receptor (Homo sapiens, UniProt P28335)", "T1 sequence (P28335 33-458)": "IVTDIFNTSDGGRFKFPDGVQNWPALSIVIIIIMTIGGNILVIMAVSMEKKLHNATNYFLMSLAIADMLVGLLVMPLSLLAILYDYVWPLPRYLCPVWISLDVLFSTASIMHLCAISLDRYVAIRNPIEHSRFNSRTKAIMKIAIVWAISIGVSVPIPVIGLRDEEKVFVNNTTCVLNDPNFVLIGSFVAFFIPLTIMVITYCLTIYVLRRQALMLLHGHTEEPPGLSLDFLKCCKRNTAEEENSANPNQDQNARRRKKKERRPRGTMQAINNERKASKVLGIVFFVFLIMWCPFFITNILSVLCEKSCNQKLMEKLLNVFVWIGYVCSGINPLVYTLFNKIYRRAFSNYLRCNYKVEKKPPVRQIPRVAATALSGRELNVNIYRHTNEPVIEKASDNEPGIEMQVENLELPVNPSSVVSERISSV"}, "5-HT2B receptor": {"biological_target": "5-HT2B receptor (Homo sapiens, UniProt P41595)", "sequence (P41595 whole entry)": "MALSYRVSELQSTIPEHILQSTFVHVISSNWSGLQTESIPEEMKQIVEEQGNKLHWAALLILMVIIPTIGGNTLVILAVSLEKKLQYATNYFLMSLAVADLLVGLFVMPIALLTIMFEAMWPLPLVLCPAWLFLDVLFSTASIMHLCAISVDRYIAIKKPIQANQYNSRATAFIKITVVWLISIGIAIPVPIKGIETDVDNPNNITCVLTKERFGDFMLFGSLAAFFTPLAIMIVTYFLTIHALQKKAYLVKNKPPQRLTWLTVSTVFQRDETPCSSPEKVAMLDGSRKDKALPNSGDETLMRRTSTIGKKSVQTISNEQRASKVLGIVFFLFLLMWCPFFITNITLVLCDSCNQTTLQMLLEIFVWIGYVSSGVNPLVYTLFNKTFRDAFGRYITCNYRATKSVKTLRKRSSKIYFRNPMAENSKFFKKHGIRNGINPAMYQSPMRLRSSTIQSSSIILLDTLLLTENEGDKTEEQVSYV"}}}
{"compound": "CN[C@@H](C)C(=O)c1ccc(C)cc1", "note": "[S-MEPH, S-mephedrone]", "values": [{"measurement": "Ki", "setting": "sigma-1 receptor", "result": 1500, "unit": "nM"}, {"measurement": "Ki", "setting": "5-HT2C receptor", "result": 3900, "unit": "nM"}, {"measurement": "Ki", "setting": "5-HT2B receptor", "result": 857, "unit": "nM"}]}
